# Measurements taken from patent US12023335B2, “Method for treating pancreatic cancer” (PTC THERAPEUTICS, INC., priority 2018, dated 2024).
# Entries after “also recorded” stand apart in the source; their conditions may differ.
# Columns and labels:
# [1] = target: T1, tubulin from porcine brain (Sus scrofa, UniProt P02550+P02554); assay: Cell-free tubulin polymerization assay; assay type: biochemical; conditions: 0.12, 0.37, 1.11, 3.33 and 10 μM (FIGS. 11e, 11f)
# T1 construct: which uses >99% pure tubulin from porcine brain; purchased Cytoskeleton #BK011P; host or cells: porcine brain (tissue-purified)
# T1 sequence (P02554 whole entry): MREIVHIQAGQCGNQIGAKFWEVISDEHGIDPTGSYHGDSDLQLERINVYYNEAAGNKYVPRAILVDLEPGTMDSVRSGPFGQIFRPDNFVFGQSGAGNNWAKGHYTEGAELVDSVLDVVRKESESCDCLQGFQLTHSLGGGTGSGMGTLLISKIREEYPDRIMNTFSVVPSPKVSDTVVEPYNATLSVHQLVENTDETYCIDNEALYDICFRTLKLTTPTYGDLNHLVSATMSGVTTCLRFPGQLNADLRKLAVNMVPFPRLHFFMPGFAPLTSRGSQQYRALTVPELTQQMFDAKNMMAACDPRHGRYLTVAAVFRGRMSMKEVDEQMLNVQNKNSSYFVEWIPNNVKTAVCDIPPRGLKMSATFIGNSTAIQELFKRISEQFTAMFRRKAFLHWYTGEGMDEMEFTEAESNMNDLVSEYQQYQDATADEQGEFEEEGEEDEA
# T1 sequence (P02550 whole entry): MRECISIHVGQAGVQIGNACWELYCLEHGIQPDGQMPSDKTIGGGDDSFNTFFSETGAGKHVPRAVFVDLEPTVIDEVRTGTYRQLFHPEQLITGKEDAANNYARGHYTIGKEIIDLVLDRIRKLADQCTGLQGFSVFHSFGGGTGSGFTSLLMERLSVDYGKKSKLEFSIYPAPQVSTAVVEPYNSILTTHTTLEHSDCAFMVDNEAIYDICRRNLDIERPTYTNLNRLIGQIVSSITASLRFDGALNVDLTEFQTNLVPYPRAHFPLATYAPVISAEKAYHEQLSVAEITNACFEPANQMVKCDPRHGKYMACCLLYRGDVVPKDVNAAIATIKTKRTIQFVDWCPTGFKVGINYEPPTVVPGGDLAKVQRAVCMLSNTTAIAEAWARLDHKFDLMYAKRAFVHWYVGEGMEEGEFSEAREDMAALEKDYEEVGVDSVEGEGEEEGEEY
# Experimental: Assays were carried out according to manufacturer's recommendations using the fluorescence-based tubulin polymerization assay kit from Cytoskeleton (#BK011P) which uses >99% pure tubulin from porcine brain. All drugs used were dissolved in DMSO and then diluted in ultrapure water to 10× final concentration. Final percentage of DMSO was kept constant for all samples. Tubulin was prepared by resuspension at 2 mg/mL in 80 mM PIPES pH 6.9, 2.0 mM MgCl2, 0.5 mM EGTA, 1.0 mM GTP, 15% glycerol, and 10 μM fluorescent reporter. All drug samples (10×) were added to a pre-warmed half-area 96-well plate (Corning Costar, 3686) in duplicate, and then warmed to 37° C. for 1 min. Tubulin (50 μL/well) was then added to all wells, and the plate was placed in a plate reader pre-warmed to 37° C. The plate was mixed by medium, orbital shaking for 5 seconds, and fluorescence measured every 60 seconds for 90 minutes (Ex: 340-360+/−20 nm, Em: 410-460 nm+/−20 nm) in a BioTek Synergy 2 plate reader. Polymerization rates (fluorescence units/minute) were determined by measuring the maximal slope (by linear regression) of the linear portion of the growth phase of the polymerization curve. (FIG. 11e and FIG. 11f)
# CYCLIN B1 = assay: Western blot for CYCLIN B1 on tumors from KPC mice; assay type: in vivo; conditions: 10 mg/kg; biopsy 48 hours before first dose vs necropsy 24 hours after third dose (FIGS. 5b, 5c)
# Experimental: Western blotting was carried out on lysates isolated from treated cells. Cells were lysed using RIPA buffer (50 mM Tris, pH 7.4, 150 mM NaCl, 1% Nonidet P-40, 0.1% SDS, 0.5% deoxycholate) supplemented with cOmplete™ EDTA-free Protease Inhibitor Cocktail (Sigma, 11836170001) and Halt™ Phosphatase Inhibitor Cocktail (ThermoFisher, 78420). Lysates were quantified using the Pierce BCA Protein Assay Kit (ThermoFisher, 23227), diluted in SDS sample buffer, resolved by SDS-PAGE (15-30 μg/sample), and transferred onto PVDF membranes. Membranes were blocked with 5% w/v nonfat dry milk in TBS-T (0.1% Tween20) and primary antibodies were incubated overnight at 4° C., diluted in 5% BSA in TBS-T at the indicated concentrations. HRP-conjugated secondary antibodies were incubated in blocking buffer for 1 hour at room temperature before detection using Super Digital-ECL™ substrate solution (Kindle Biosciences, R1002). (FIG. 5b, FIG. 10a and FIG. 11b)
# [2] = Plasma pharmacokinetic time course in mice after a single oral dose; assay type: in vivo; conditions: single oral dose 10 mg/kg (FIG. 4a)
# Experimental: Blood plasma and tissue samples to be used for analysis were immediately frozen on dry ice and stored at −80° C. until analysis. Concentrations of Compound 1 in samples were quantified using high-performance liquid chromatography with tandem mass spectrometry (LC-MS/MS). Compound 1 and its internal standard (deuterated Compound 1) were recovered by protein precipitation extraction from samples.
# For the plasma pharmacokinetic time course study, a standard curve was made to cover concentrations between 0.001 ug/mL and 3.0 μg/mL. The lower limit of quantification (LLOQ) for Compound 1 (either version) in plasma was 0.001 μg/mL. (FIG. 4a)
structure (smiles),measurement,setting,value
"Cc1nc2ccc(F)cc2n1-c1nc(N)c(F)c(Nc2ccc(C(F)(F)F)cc2)n1 [Compound 1, 5-fluoro-2-(6-fluoro-2-methyl-1H-benzo[d]imidazol-1-yl)-N4-[4-(trifluoromethyl)phenyl]pyrimidine-4,6-diamine]",tubulin polymerization (fluorescence units/minute),[1],function as a microtubule polymerization inhibitor; also recorded: dose-dependent decrease in tubulin polymerization; also recorded: directly inhibits microtubule formation
same,CYCLIN B1 normalized to VINCULIN in tumors,CYCLIN B1,consistent reduction in Cyclin B1 relative to Vinculin
same,CNS penetration / brain distribution,[2],penetrates the CNS and distributes into brain tissues
same,plasma / circulating half-life,[2]; 10 mg/kg,long circulating half-life; also recorded: long plasma half-life
